In ChEMBL document CHEMBL5370664, “Resveratrol Derivatives Inhibit Transthyretin Fibrillization: Structural Insights into the Interactions between Resveratrol Derivatives and Transthyretin” (J Med Chem, 2023):
pKd, pKi: −log10 of the molar value. Activity calls are given as the source filed them. The calls are words filed in the database; no cut-off is given here.

Molecular target: T1, Transthyretin (Homo sapiens, UniProt P02766, V50M)
Experiment: Binding affinity to recombinant N-terminal hexa-histidine tagged TTR V30M mutant (unknown origin) expressed in Escherichia coli assessed as quenching of intrinsic tryptophan fluorescence by measuring apparent dissociation constant incubated for 60 mins by fluorescence based analysis
Conditions: read-out: Kd(app)

Going from `COc1cc(/C=C/c2ccc(O)cc2)cc(OC)c1` [PTEROSTILBENE] to `COc1cc(O)cc(/C=C/c2ccc(O)cc2)c1`, the pKd rises from 5.72 to 5.92 (0.20 log units).

First: COc1ccc(/C=C/c2cc(OC)cc(OC)c2)cc1 [TRISMETHOXYRESVERATROL]
Second: COc1cc(/C=C/c2ccc(OC)c(OC)c2)cc(OC)c1 [(E)-3,4,3',5'-TETRAMETHOXYSTILBENE]
The pKd of the first is 0.23 log units higher: 5.39 for the first, 5.16 for the second. The first binds more tightly here.

`Oc1ccc(/C=C/c2cc(O)cc(O)c2)cc1` [RESVERATROL] and `Oc1cc(O)cc(/C=C/c2ccc(O)c(O)c2)c1` [PICEATANNOL] are within 0.2 log units of each other in pKd: 5.85 for the first, 5.68 for the second.

Going from `COc1cc(/C=C/c2cc(O)cc(O)c2)ccc1O` to `Oc1cc(O)cc(/C=C/c2ccc(O)cc2O)c1` [OXYRESVERATROL], the pKd falls from 6.14 to 5.62 (0.52 log units). The first binds more tightly here.

For `Oc1cc(O)cc(/C=C/c2c(O)cccc2O)c1`, the pKd was 4.85.

Test system: Transthyretin (Homo sapiens), P02766 [V50M]
Experiment: Binding affinity to N-terminal hexa-histidine tagged TTR V30M mutant (unknown origin) expressed in Escherichia coli assessed as gibbs free energy change at 60 uM by ITC assay
Conditions: not given

Compared with `COc1cc(/C=C/c2ccc(O)cc2)cc(OC)c1` [PTEROSTILBENE], `COc1cc(O)cc(/C=C/c2ccc(O)cc2)c1` is lower in deltaG: -7.3 kcal/mol for the first, -7.7 kcal/mol for the second.

`Oc1ccc(/C=C/c2cc(O)cc(O)c2)cc1` [RESVERATROL] and `Oc1cc(O)cc(/C=C/c2ccc(O)c(O)c2)c1` [PICEATANNOL] are the same in deltaG: -8 kcal/mol for the first, -8 kcal/mol for the second.

`COc1cc(/C=C/c2cc(O)cc(O)c2)ccc1O` and `Oc1cc(O)cc(/C=C/c2ccc(O)cc2O)c1` [OXYRESVERATROL] are the same in deltaG: -8.1 kcal/mol for the first, -8.1 kcal/mol for the second.

Work on `Oc1cc(O)cc(/C=C/c2c(O)cccc2O)c1` yielded a deltaG of -6.8 kcal/mol.

Test system: Transthyretin (Homo sapiens), P02766 [V50M]
Experiment: Binding affinity to N-terminal hexa-histidine tagged TTR V30M mutant (unknown origin) expressed in Escherichia coli assessed as change in enthalpy at 60 uM by ITC assay
Conditions: not given

Going from `O=C(O)c1ccc2nc(-c3cc(Cl)cc(Cl)c3)oc2c1` to `O=C(O)c1cc(-c2ccc(F)cc2F)ccc1O`, the deltaH falls from -5 kcal/mol to -13 kcal/mol.

`COc1cc(/C=C/c2ccc(O)cc2)cc(OC)c1` [PTEROSTILBENE] and `COc1cc(O)cc(/C=C/c2ccc(O)cc2)c1` are the same in deltaH: -14 kcal/mol for the first, -14 kcal/mol for the second.

Going from `Oc1ccc(/C=C/c2cc(O)cc(O)c2)cc1` [RESVERATROL] to `Oc1cc(O)cc(/C=C/c2ccc(O)c(O)c2)c1` [PICEATANNOL], the deltaH rises from -15 kcal/mol to -14 kcal/mol.

Compared with `COc1cc(/C=C/c2cc(O)cc(O)c2)ccc1O`, `Oc1cc(O)cc(/C=C/c2ccc(O)cc2O)c1` [OXYRESVERATROL] is lower in deltaH: -13 kcal/mol for the first, -16 kcal/mol for the second.

`Oc1cc(O)cc(/C=C/c2c(O)cccc2O)c1` gave a deltaH of -8.5 kcal/mol.

Molecular target: T1, Transthyretin
Experiment: (§1) Inhibition of recombinant N-terminal hexa-histidine tagged TTR V30M mutant (unknown origin) expressed in Escherichia coli assessed as acid mediated amyloid-like fibril formation by measuring turbidity incubated for 1 week at 310K in presence of sodium acetate by absorbance based assay
Conditions: not given

`COc1cc(/C=C/c2ccc(O)cc2)cc(OC)c1` [PTEROSTILBENE] and `COc1cc(O)cc(/C=C/c2ccc(O)cc2)c1` are within 0.2 log units of each other in pKi: 5.46 for the first, 5.47 for the second.

Compared with `Oc1ccc(/C=C/c2cc(O)cc(O)c2)cc1` [RESVERATROL], `Oc1cc(O)cc(/C=C/c2ccc(O)c(O)c2)c1` [PICEATANNOL] is 0.30 log units lower in pKi: 5.57 for the first, 5.27 for the second.

`COc1cc(/C=C/c2cc(O)cc(O)c2)ccc1O` and `Oc1cc(O)cc(/C=C/c2ccc(O)cc2O)c1` [OXYRESVERATROL] are within 0.2 log units of each other in pKi: 5.49 for the first, 5.35 for the second.

`Oc1cc(O)cc(/C=C/c2c(O)cccc2O)c1` and `COc1cc(/C=C/c2ccc(OC)c(OC)c2)cc(OC)c1` [(E)-3,4,3',5'-TETRAMETHOXYSTILBENE] are within 0.2 log units of each other in pKi: 4.27 for the first, 4.31 for the second.

Molecule `CC(=O)Oc1ccc(/C=C/c2cc(OC(C)=O)cc(OC(C)=O)c2)cc1` [TRIACETYLRESVERATROL] has a pKi of 5.66.

Test system: Transthyretin (Homo sapiens), P02766 [V50M]
Experiment: as §1, with “fluorescence intensity at 1 uM” for “turbidity”, “4 days” for “1 week”, “thioflavin T” for “absorbance”, “fluorescence spectrophotometric analysis” for “assay”
Conditions: time 4.0 day

With `O=C(O)c1ccc2nc(-c3cc(Cl)cc(Cl)c3)oc2c1` the inhibition was “Active”.
For `COc1cc(/C=C/c2ccc(O)cc2)cc(OC)c1` [PTEROSTILBENE], the inhibition was “Active”.
In the case of `COc1ccc(/C=C/c2cc(OC)cc(OC)c2)cc1` [TRISMETHOXYRESVERATROL], the inhibition was “inactive”.
`Oc1ccc(/C=C/c2cc(O)cc(O)c2)cc1` [RESVERATROL] was tested, and the inhibition was “Active”.
With `COc1cc(/C=C/c2cc(O)cc(O)c2)ccc1O` the inhibition was “Active”.
`Oc1cc(O)cc(/C=C/c2c(O)cccc2O)c1` was tested, and the inhibition was “inactive”.
In the case of `Oc1cc(O)cc(/C=C/c2ccc(O)cc2O)c1` [OXYRESVERATROL], the inhibition was “Active”.
For `Oc1cc(O)cc(/C=C/c2ccc(O)c(O)c2)c1` [PICEATANNOL], the inhibition was “Active”.
In the case of `O=C(O)c1cc(-c2ccc(F)cc2F)ccc1O`, the inhibition was “Active”.
With `CC(=O)Oc1ccc(/C=C/c2cc(OC(C)=O)cc(OC(C)=O)c2)cc1` [TRIACETYLRESVERATROL] the inhibition was “Active”.
`COc1cc(O)cc(/C=C/c2ccc(O)cc2)c1` was tested, and the inhibition was “Active”.
With `COc1cc(/C=C/c2ccc(OC)c(OC)c2)cc(OC)c1` [(E)-3,4,3',5'-TETRAMETHOXYSTILBENE] the inhibition was “inactive”.

Molecular target: T1, Transthyretin
Experiment: Binding affinity to N-terminal hexa-histidine tagged TTR V30M mutant (unknown origin) expressed in Escherichia coli assessed as dissociation constant at 60 uM by ITC assay
Conditions: not given

Compared with `COc1cc(/C=C/c2ccc(O)cc2)cc(OC)c1` [PTEROSTILBENE], `COc1cc(O)cc(/C=C/c2ccc(O)cc2)c1` is 0.28 log units higher in pKd: 5.34 for the first, 5.62 for the second.

`Oc1ccc(/C=C/c2cc(O)cc(O)c2)cc1` [RESVERATROL] and `Oc1cc(O)cc(/C=C/c2ccc(O)c(O)c2)c1` [PICEATANNOL] are the same in pKd: 5.82 for the first, 5.82 for the second.

`COc1cc(/C=C/c2cc(O)cc(O)c2)ccc1O` and `Oc1cc(O)cc(/C=C/c2ccc(O)cc2O)c1` [OXYRESVERATROL] are within 0.2 log units of each other in pKd: 5.92 for the first, 5.85 for the second.

`Oc1cc(O)cc(/C=C/c2c(O)cccc2O)c1` showed a pKd of 4.96.

Test system: Transthyretin (Homo sapiens), P02766 [V50M]
Experiment: Binding affinity to N-terminal hexa-histidine tagged TTR V30M mutant (unknown origin) expressed in Escherichia coli assessed as change in entropy at 60 uM by ITC assay
Conditions: not given

First: O=C(O)c1ccc2nc(-c3cc(Cl)cc(Cl)c3)oc2c1
Second: O=C(O)c1cc(-c2ccc(F)cc2F)ccc1O
The -TdeltaS of the first is lower: -4 kcal/mol for the first, 5.2 kcal/mol for the second.

Going from `COc1cc(/C=C/c2ccc(O)cc2)cc(OC)c1` [PTEROSTILBENE] to `COc1cc(O)cc(/C=C/c2ccc(O)cc2)c1`, the -TdeltaS falls from 6.8 kcal/mol to 6.2 kcal/mol.

Compared with `Oc1ccc(/C=C/c2cc(O)cc(O)c2)cc1` [RESVERATROL], `Oc1cc(O)cc(/C=C/c2ccc(O)c(O)c2)c1` [PICEATANNOL] is lower in -TdeltaS: 6.6 kcal/mol for the first, 6.4 kcal/mol for the second.

First: COc1cc(/C=C/c2cc(O)cc(O)c2)ccc1O
Second: Oc1cc(O)cc(/C=C/c2ccc(O)cc2O)c1 [OXYRESVERATROL]
The -TdeltaS of the first is lower: 4.7 kcal/mol for the first, 7.5 kcal/mol for the second.

For `Oc1cc(O)cc(/C=C/c2c(O)cccc2O)c1`, the -TdeltaS was 1.7 kcal/mol.
